# According to patent US9821000B2, “Compounds, compositions and corresponding uses for preventing and/or treating of dyslipidemia” (CENTRE NATIONAL DE LA RECHERCHE SCIENTIFIQUE (CNRS), priority 2013, dated 2017):
# Entries after “also recorded” stand apart in the source; their conditions may differ.
# What was measured:
# [1] = system: QM strain; experiment: Toxicity test on QM strain (growth inhibition haloes); format: cell-based, Saccharomyces cerevisiae; conditions: after three days; for toxicity for cells that do not synthesize triglycerides: QM strain on agar medium; for haloes of growth inhibition (absence of colonies): QM strain, 5 μl drops on agar
# Experimental: 5 μl drops of OAG, LPA or oleic acid were deposited, from stock solutions in the concentrations indicated, on the surface of an agar medium on which the QM strain had been preliminarily spread. […] These haloes are on the contrary not observed in the presence of LPA and OAG.
# At the same time, wild strains (WT) and QM are cultivated in aerobic conditions under stirring and at 28° C., in a YPG liquid medium before seeding 3500 cells per cm^2 of YPG+agar 2% (m/v). Following this transfer to solid medium, 1 μL drops of solutions of different compounds at 1, 10 and 100 mM in DMSO or EtOH are deposited on the surface of the agar. Separately, deposits of DMSO and EtOH are also made in order to assess the intrinsic toxicity of these two solvents. After three days of culture of 28° C., the toxicity of the tested compounds is evaluated by comparing the diameters of the growth inhibition haloes obtained for the deposits of undissolved solvents with those of the deposits of different concentrations of compounds tested.
# [2] = system: BRIN-BD11 pancreatic β-cells; experiment: Cell viability test (propidium iodide, flow cytometry) of pancreatic β-cells lipo-intoxicated by palmitic acid; format: cell-based, rat; conditions: BRIN-BD11, palmitic acid 200 μM, growing concentrations of compound
# Experimental: (§1) The BRIN-BD11 pancreatic β-cells were cultivated in controlled conditions or in the presence of an exogenous source of saturated fatty acids (palmitic acid 200 μM), as described by Dhayal& Morgan (2011) in order to generate conditions of lipotoxicity with or without addition of OAG or LPA.
# FIG. 7A—The proportion of dead cells was estimated in the absence (Ctrl) or in the presence of palmitic acid (Palm), for growing concentrations of OAG and LPA.
# The lipidic species are prepared in ethanol and then complexed with bovine serum albumen (BSA initially devoid of fatty acids) by incubation for one hour at 37° C. […]
# The pancreatic β-cell cell line (BRIN-BD11) of rats is cultivated in an RPMI-1640 complete medium containing glucose at 11 mM and supplemented with 10% (v/v) of fetal calf serum (FCS), 2 mM of L-glutamine, 100 U/mL of penicillin and 100 μg/mL of streptomycin. […] In the case of the controlled conditions, identical quantities of BSA and ethanol were then used. […] After incubation at 10 minutes on ice, the samples thus obtained are analyzed by cytometry in flux. A Beckman Coulter EPICS XL MCL is used for quantification, an FL3 channel serves to detect emissions from PI interposed in the DNA and the analysis is done by means of the software EXPO32 ADC (Applied Cytometry Systems, V 1.1 build 207).
# [3] = system: eIF2α; experiment: Western blotting of eIF2α phosphorylation (UPR) in BRIN-BD11 cells; format: cell-based, rat; conditions: BRIN-BD11, palmitic acid 200 μM
# Experimental: as §1
# FIG. 7B—The rates of phosphorylation of eIF2α were also analyzed under different conditions by Western blotting method, in the absence (Ø) or in the presence of OAG or LPA and normalized with quantities of total eIF2α. […] A.U.: arbitrary units.
# The cells BRIN-BD11 are seeded at a density of 0.5×10^5 cells/mL in T25 flasks for 24 h. As indicated here above, the complete medium is then replaced by an equivalent devoid of FCS but containing the lipid reagents of interest. […] In a second stage, the membranes are stripped with the buffer Re-Blot Plus-Strong (Millipore) and then probed a second time with total anti-eIF2α antibodies (CellSignalling (New EnglandBiolabs) diluted to 1/1000th. The analysis by densitometry of the relative abundance of the phosphorylated and non-phosphorylated forms of the protein eIF2α is done with the Fluor-S Multi-imager analysis system combined with the software program Quantify One (Biorad UK Ltd).
SMILES,toxicity for cells that do not synthesize triglycerides [1],haloes of growth inhibition (absence of colonies) [1],apoptosis (proportion of dead cells) of pancreatic β-cells in the presence of saturated fatty acids [2],UPR induction (rate of phosphorylation of eIF2α normalized to total eIF2α) [3]
"CCCCCCCC/C=C\CCCCCCCC(=O)OC[C@@H](O)COP(=O)(O)O [LPA, 1-oleoyl-sn-glycerol-3-phosphate]",not toxic,not observed,prevent apoptosis,reducing the induction rate of UPR
"CCCCCCCC/C=C\CCCCCCCC(=O)OC[C@H](CO)OC(C)=O [OAG, 1-oleoyl-2-acetyl-sn-glycerol]",not toxic,not observed,prevent apoptosis,reducing the induction rate of UPR; also recorded: reduces the UPR
